Where two headings read alike, the source gives them in different places.
Legend:
[1] = Capivasertib exposure metrics at steady state projected with PopPK model, patients with solid tumors; assay type: in vivo; conditions: human, plasma, oral; for concentration at 12 h: read-out: Cmin
Method: Study 1 (NCT01226316) was a phase 1 open-label multipart study. […] The duration of the treatment cycles was 21 days. […] [18]. […] [18, 25, 39].
Study 4 (NCT01353781) was a phase 1 dose-escalation study in Japanese patients with advanced solid malignancies.
(§1) The exposure–response analyses were conducted using a subset of patients from the PopPK analysis where capivasertib was used as monotherapy. […] As different schedules were assessed between and within studies, the exposure metrics were derived for the last dose of the last dosing day in the second week of treatment (i.e. on days 14, 11, and 9 for the continuous, [4/3] and [2/5] schedules, respectively), to ensure SS conditions, using the planned dose. […] The relative dose intensity (RDI) was calculated as the percentage of the average weekly dose relative to the PWD to examine the tolerability of capivasertib monotherapy at the given dosing schedules.

[2] = Exposure–response analysis (logistic regression) of safety endpoints; assay type: in vivo, human
Method: as §1
Logistic regression models were used to establish associations between the probability of the safety endpoints with the exposure metrics at a statistically significant level of 0.005.

[3] = cited from earlier work
[4] = 400 mg, Study 4 (Japanese patients), Continuous BID, PWD 5600 mg, N=5, median (range)
[5] = 480 mg, OAK, [4/3] BID, PWD 3840 mg, N=30, median (range)
[6] = 480 mg, Study 1, [4/3] BID, PWD 3840 mg, N=127, median (range)
[7] = 480 mg, Study 4 (Japanese patients), [4/3] BID, PWD 3840 mg, N=6, median (range)
[8] = 600 mg, Study 1, Continuous BID, PWD 8400 mg, N=2, median (range)
[9] = 640 mg, Study 1, [2/5] BID, PWD 2560 mg, N=8, median (range)
[10] = 640 mg, Study 1, [4/3] BID, PWD 5120 mg, N=10, median (range)
[11] = 640 mg, Study 4 (Japanese patients), [2/5] BID, PWD 2560 mg, N=6, median (range)
[12] = 800 mg, Study 1, [2/5] BID, PWD 3200 mg, N=14, median (range)
[13] = univariate logistic regression, significance level 0.005

NC1(C(=O)N[C@@H](CCO)c2ccc(Cl)cc2)CCN(c2ncnc3[nH]ccc23)CC1 [capivasertib, 4-amino-N-[(1S)-1-(4-chlorophenyl)-3-hydroxypropyl]-1-(7H-pyrrolo[2,3-d]pyrimidin– 4-yl)piperidine-4-carboxamide]
AUC ([1]; 400 mg, Study 1, Continuous BID, 400 mg, PWD 5600 mg, N=11, median (range), read-out: AUCss(0–12 h)): 5790 ng·h/mL
concentration at 12 h ([1]; 400 mg, Study 1, Continuous BID, 400 mg, PWD 5600 mg, N=11, median (range)): 190 ng/mL
Cmax ([1]; 400 mg, Study 1, Continuous BID, PWD 5600 mg, N=11, median (range)): 900 ng/mL
AUC ([1]; 400 mg, Study 4 (Japanese patients), Continuous BID, 400 mg, PWD 5600 mg, N=5, median (range), read-out: AUCss(0–12 h)): 7750 ng·h/mL
concentration at 12 h ([1]; 400 mg, Study 4 (Japanese patients), Continuous BID, 400 mg, PWD 5600 mg, N=5, median (range)): 270 ng/mL
AUC at 1 week [1, 4]: 109000 ng·h/mL
Cmax [1, 4]: 1240 ng/mL
AUC ([1]; 480 mg, OAK, [4/3] BID, 480 mg, PWD 3840 mg, N=30, median (range), read-out: AUCss(0–12 h)): 9750 ng·h/mL
concentration at 12 h ([1]; 480 mg, OAK, [4/3] BID, 480 mg, PWD 3840 mg, N=30, median (range)): 330 ng/mL
AUC at 1 week [1, 5]: 78000 ng·h/mL
Cmax [1, 5]: 1580 ng/mL
AUC ([1]; 480 mg, Study 1, Continuous BID, 480 mg, PWD 6720 mg, N=6, median (range), read-out: AUCPWD): 140000 ng·h/mL
AUC ([1]; 480 mg, Study 1, Continuous BID, 480 mg, PWD 6720 mg, N=6, median (range), read-out: AUCss(0–12 h)): 9980 ng·h/mL
concentration at 12 h ([1]; 480 mg, Study 1, Continuous BID, 480 mg, PWD 6720 mg, N=6, median (range)): 370 ng/mL
Cmax ([1]; 480 mg, Study 1, Continuous BID, PWD 6720 mg, N=6, median (range)): 1620 ng/mL
AUC ([1]; 480 mg, Study 1, [4/3] BID, 480 mg, PWD 3840 mg, N=127, median (range), read-out: AUCss(0–12 h)): 9690 ng·h/mL
concentration at 12 h ([1]; 480 mg, Study 1, [4/3] BID, 480 mg, PWD 3840 mg, N=127, median (range)): 330 ng/mL
AUC at 1 week [1, 6]: 77400 ng·h/mL
Cmax [1, 6]: 1590 ng/mL
AUC ([1]; 480 mg, Study 4 (Japanese patients), [4/3] BID, 480 mg, PWD 3840 mg, N=6, median (range), read-out: AUCss(0–12 h)): 10800 ng·h/mL
concentration at 12 h ([1]; 480 mg, Study 4 (Japanese patients), [4/3] BID, 480 mg, PWD 3840 mg, N=6, median (range)): 290 ng/mL
AUC at 1 week [1, 7]: 86800 ng·h/mL
Cmax [1, 7]: 1880 ng/mL
AUC ([1]; 600 mg, Study 1, Continuous BID, 600 mg, PWD 8400 mg, N=2, median (range), read-out: AUCss(0–12 h)): 14300 ng·h/mL
concentration at 12 h ([1]; 600 mg, Study 1, Continuous BID, 600 mg, PWD 8400 mg, N=2, median (range)): 460 ng/mL
AUC at 1 week [1, 8]: 200000 ng·h/mL
Cmax [1, 8]: 2520 ng/mL
AUC ([1]; 640 mg, Study 1, [2/5] BID, 640 mg, PWD 2560 mg, N=8, median (range), read-out: AUCss(0–12 h)): 15000 ng·h/mL
concentration at 12 h ([1]; 640 mg, Study 1, [2/5] BID, 640 mg, PWD 2560 mg, N=8, median (range)): 570 ng/mL
AUC at 1 week [1, 9]: 59800 ng·h/mL
Cmax [1, 9]: 2080 ng/mL
AUC ([1]; 640 mg, Study 1, [4/3] BID, 640 mg, PWD 5120 mg, N=10, median (range), read-out: AUCss(0–12 h)): 15900 ng·h/mL
concentration at 12 h ([1]; 640 mg, Study 1, [4/3] BID, 640 mg, PWD 5120 mg, N=10, median (range)): 550 ng/mL
AUC at 1 week [1, 10]: 127000 ng·h/mL
Cmax [1, 10]: 2430 ng/mL
AUC ([1]; 640 mg, Study 4 (Japanese patients), [2/5] BID, 640 mg, PWD 2560 mg, N=6, median (range), read-out: AUCss(0–12 h)): 15200 ng·h/mL
concentration at 12 h ([1]; 640 mg, Study 4 (Japanese patients), [2/5] BID, 640 mg, PWD 2560 mg, N=6, median (range)): 570 ng/mL
AUC at 1 week [1, 11]: 61000 ng·h/mL
Cmax [1, 11]: 2480 ng/mL
AUC ([1]; 800 mg, Study 1, [2/5] BID, 800 mg, PWD 3200 mg, N=14, median (range), read-out: AUCss(0–12 h)): 26400 ng·h/mL
concentration at 12 h ([1]; 800 mg, Study 1, [2/5] BID, 800 mg, PWD 3200 mg, N=14, median (range)): 1080 ng/mL
AUC at 1 week [1, 12]: 106000 ng·h/mL
Cmax [1, 12]: 3930 ng/mL
probability of hyperglycemia AE grade ≥ 3 and increased blood glucose > 13.9 mmol/L ([2]; [2/5] 640 mg compared with [4/3] 480 mg): higher probability
probabilities of hyperglycemia AE grade ≥ 3 and increased blood glucose > 13.9 mmol/L: effect of schedule ([2]; at a given dose): did not depend on the schedule
probability of AEDD, AEDM and diarrhea AE grade ≥ 2: effect of schedule ([2]; at a given dose, intermittent schedules compared with continuous, statistically significant): lower probability of events
probability of hyperglycemia AE grade ≥ 3 and increased blood glucose > 13.9 mmol/L: effect of schedule ([2]; at a given weekly dose, intermittent schedules compared with continuous, statistically significant): higher probability of events
probability of rash AE grade ≥ 2, AEDD, AEDM, AE grade ≥ 3, SAE and diarrhea AE grade ≥ 2 ([2]; continuous 320 mg (4480 mg weekly) compared with [4/3] 480 mg (3840 mg weekly)): higher
relationships between exposure metrics and AE grade ≥ 1 ([2]; logistic regression, significance level 0.005): No significant relationships
exposure metrics with significant relationship to AE grade ≥ 3 [2, 13]: dose, PWD, AUC, AUCPWD, Cmax, and Cmin
exposure metrics with significant relationship to AE leading to dose discontinuation [2, 13]: PWD
exposure metrics with significant relationship to AE leading to dose modification [2, 13]: PWD, AUC, AUCPWD, Cmax, and Cmin
exposure metrics with significant relationship to SAE [2, 13]: dose, PWD, AUC, AUCPWD, Cmax, and Cmin
exposure metrics with significant relationship to diarrhea AE grade ≥ 2 [2, 13]: PWD, AUCPWD
exposure metrics with significant relationship to hyperglycemia AE grade ≥ 3 [2, 13]: dose, AUC, AUCPWD, Cmax, and Cmin
exposure metrics with significant relationship to increased blood glucose > 13.9 mmol/L [2, 13]: dose, AUC, AUCPWD, Cmax, and Cmin
exposure metrics with significant relationship to rash AE grade ≥ 2 [2, 13]: PWD
dose proportionality of plasma exposure ([3]; dose range of 80–480 mg): approximately dose proportional
half-life ([3]; patients): approximately 8 h

From article PMC11953117 (Cancer Chemotherapy and Pharmacology, 2025)
